Values joined by “and” are separate entries in the source; they are usually repeats but may differ in a detail not shown here. Equal entries are not always repeated.
Conditions: Liquid; for mass density: Bellows volumetry

CCC(C)C [2-methylbutane]
Conditions	mass density
280 K, 1000 kPa	633.54 kg/m3
280 K, 2000 kPa	634.7 kg/m3
280 K, 3000 kPa	635.86 kg/m3
280 K, 5000 kPa	638.02 kg/m3
280 K, 10000 kPa	643.42 kg/m3
280 K, 20000 kPa	653.11 kg/m3
280 K, 30000 kPa	661.46 kg/m3
280 K, 40000 kPa	669.03 kg/m3
280 K, 50000 kPa	675.94 kg/m3
280 K, 60000 kPa	682.44 kg/m3
280 K, 70000 kPa	688.43 kg/m3
280 K, 80000 kPa	694.03 kg/m3
280 K, 90000 kPa	699.3 kg/m3
280 K, 100000 kPa	704.35 kg/m3
280 K, 120000 kPa	713.77 kg/m3
280 K, 140000 kPa	722.2 kg/m3
280 K, 160000 kPa	729.89 kg/m3
280 K, 180000 kPa	737.33 kg/m3
280 K, 200000 kPa	744.07 kg/m3
298.14 K, 10200 kPa	627.35 kg/m3
298.14 K, 40600 kPa	656.53 kg/m3
298.14 K, 101400 kPa	694.83 kg/m3
298.14 K, 177400 kPa	727.57 kg/m3
300 K, 1000 kPa	613.77 kg/m3
300 K, 2000 kPa	615.18 kg/m3
300 K, 3000 kPa	616.54 kg/m3
300 K, 5000 kPa	619.26 kg/m3
300 K, 10000 kPa	625.53 kg/m3
300 K, 20000 kPa	636.61 kg/m3
300 K, 30000 kPa	646.19 kg/m3
300 K, 40000 kPa	654.71 kg/m3
300 K, 50000 kPa	662.36 kg/m3
300 K, 60000 kPa	669.45 kg/m3
300 K, 70000 kPa	675.91 kg/m3
300 K, 80000 kPa	682.03 kg/m3
300 K, 90000 kPa	687.64 kg/m3
300 K, 100000 kPa	692.98 kg/m3
300 K, 120000 kPa	702.76 kg/m3
300 K, 140000 kPa	711.75 kg/m3
300 K, 160000 kPa	719.81 kg/m3
300 K, 180000 kPa	727.5 kg/m3
300 K, 200000 kPa	734.71 kg/m3
320 K, 199 kPa	592.04 kg/m3
320 K, 210 kPa	592.07 kg/m3
320 K, 315 kPa	592.25 kg/m3
320 K, 502 kPa	592.61 kg/m3
320 K, 1000 kPa	593.5 kg/m3 and 592.72 kg/m3
320 K, 2000 kPa	595.25 kg/m3 and 594.35 kg/m3
320 K, 3000 kPa	596.07 kg/m3
320 K, 5000 kPa	599.33 kg/m3
320 K, 10000 kPa	606.77 kg/m3
320 K, 20000 kPa	619.58 kg/m3
320 K, 30000 kPa	630.46 kg/m3
320 K, 40000 kPa	639.89 kg/m3
320 K, 50000 kPa	648.39 kg/m3
320 K, 60000 kPa	656.03 kg/m3
320 K, 70000 kPa	662.98 kg/m3
320 K, 80000 kPa	669.62 kg/m3
320 K, 90000 kPa	675.83 kg/m3
320 K, 100000 kPa	681.48 kg/m3
320 K, 120000 kPa	691.83 kg/m3
320 K, 140000 kPa	701.5 kg/m3
320 K, 160000 kPa	710.26 kg/m3
320 K, 180000 kPa	718.37 kg/m3
320 K, 200000 kPa	725.65 kg/m3
323.13 K, 49030 kPa	645.8 kg/m3
323.13 K, 98070 kPa	678.79 kg/m3
323.13 K, 147100 kPa	703.2 kg/m3
323.13 K, 196130 kPa	722.79 kg/m3
340 K, 338 kPa	569.61 kg/m3
340 K, 420 kPa	569.78 kg/m3
340 K, 513 kPa	570.01 kg/m3
340 K, 1000 kPa	571.14 kg/m3 and 570.66 kg/m3
340 K, 2000 kPa	572.85 kg/m3
340 K, 3000 kPa	574.98 kg/m3
340 K, 5000 kPa	578.97 kg/m3
340 K, 10000 kPa	587.99 kg/m3
340 K, 20000 kPa	602.92 kg/m3
340 K, 30000 kPa	615.28 kg/m3
340 K, 40000 kPa	625.82 kg/m3
340 K, 50000 kPa	635.12 kg/m3
340 K, 60000 kPa	643.45 kg/m3
340 K, 70000 kPa	651.03 kg/m3
340 K, 80000 kPa	658.05 kg/m3
340 K, 90000 kPa	664.53 kg/m3
340 K, 100000 kPa	670.52 kg/m3
340 K, 120000 kPa	681.53 kg/m3
340 K, 140000 kPa	691.52 kg/m3
340 K, 160000 kPa	700.49 kg/m3
340 K, 180000 kPa	708.89 kg/m3
340 K, 200000 kPa	716.61 kg/m3
360 K, 550 kPa	544.65 kg/m3
360 K, 608 kPa	544.68 kg/m3
360 K, 609 kPa	544.84 kg/m3
360 K, 702 kPa	545.09 kg/m3
360 K, 1000 kPa	545.87 kg/m3 and 545.89 kg/m3
360 K, 2000 kPa	548.79 kg/m3
360 K, 3000 kPa	551.5 kg/m3
360 K, 5000 kPa	556.57 kg/m3
360 K, 10000 kPa	567.71 kg/m3
360 K, 20000 kPa	585.18 kg/m3
360 K, 30000 kPa	599.16 kg/m3
360 K, 40000 kPa	610.91 kg/m3
360 K, 50000 kPa	621.15 kg/m3
360 K, 60000 kPa	630.27 kg/m3
360 K, 70000 kPa	638.43 kg/m3
360 K, 80000 kPa	645.89 kg/m3
360 K, 90000 kPa	652.93 kg/m3
360 K, 100000 kPa	659.45 kg/m3
360 K, 120000 kPa	671.11 kg/m3
360 K, 140000 kPa	681.34 kg/m3
360 K, 160000 kPa	691.16 kg/m3
360 K, 180000 kPa	699.47 kg/m3
360 K, 200000 kPa	708.18 kg/m3
368.12 K, 98070 kPa	653.72 kg/m3
368.12 K, 147100 kPa	681.34 kg/m3
368.12 K, 196130 kPa	703.04 kg/m3
380 K, 846 kPa	518.39 kg/m3
380 K, 857 kPa	518.44 kg/m3
380 K, 962 kPa	518.87 kg/m3
380 K, 1000 kPa	518.39 kg/m3
380 K, 1001 kPa	519.03 kg/m3
380 K, 2000 kPa	522.38 kg/m3
380 K, 3000 kPa	526.02 kg/m3
380 K, 5000 kPa	532.71 kg/m3
380 K, 10000 kPa	546.59 kg/m3
380 K, 20000 kPa	567.43 kg/m3
380 K, 30000 kPa	583.41 kg/m3
380 K, 40000 kPa	596.53 kg/m3
380 K, 50000 kPa	607.73 kg/m3
380 K, 60000 kPa	617.61 kg/m3
380 K, 70000 kPa	626.4 kg/m3
380 K, 80000 kPa	634.41 kg/m3
380 K, 90000 kPa	641.88 kg/m3
380 K, 100000 kPa	648.74 kg/m3
380 K, 120000 kPa	661.13 kg/m3
380 K, 140000 kPa	672.14 kg/m3
380 K, 160000 kPa	682.07 kg/m3
380 K, 180000 kPa	691.12 kg/m3
380 K, 200000 kPa	699.6 kg/m3
400 K, 1250 kPa	487.6 kg/m3
400 K, 1309 kPa	487.97 kg/m3
400 K, 1506 kPa	489.2 kg/m3
400 K, 1611 kPa	489.83 kg/m3
400 K, 2000 kPa	491.59 kg/m3 and 492.12 kg/m3
400 K, 3000 kPa	497.03 kg/m3
400 K, 5000 kPa	506.33 kg/m3
400 K, 10000 kPa	524.35 kg/m3
400 K, 20000 kPa	549.47 kg/m3
400 K, 30000 kPa	567.78 kg/m3
400 K, 40000 kPa	582.37 kg/m3
400 K, 50000 kPa	594.58 kg/m3
400 K, 60000 kPa	605.35 kg/m3
400 K, 70000 kPa	614.87 kg/m3
400 K, 80000 kPa	623.43 kg/m3
400 K, 90000 kPa	631.33 kg/m3
400 K, 100000 kPa	638.47 kg/m3
400 K, 120000 kPa	651.4 kg/m3
400 K, 140000 kPa	662.94 kg/m3
400 K, 160000 kPa	673.54 kg/m3
400 K, 180000 kPa	682.87 kg/m3
400 K, 200000 kPa	691.58 kg/m3
410 K, 1519 kPa	470.27 kg/m3
410 K, 1623 kPa	471.11 kg/m3
410 K, 2000 kPa	474.02 kg/m3
420 K, 1789 kPa	450.66 kg/m3
420 K, 1800 kPa	450.78 kg/m3
420 K, 1904 kPa	451.92 kg/m3
420 K, 2000 kPa	452.61 kg/m3 and 452.93 kg/m3
420 K, 3000 kPa	461.88 kg/m3
420 K, 5000 kPa	476.16 kg/m3
420 K, 10000 kPa	500.48 kg/m3
420 K, 20000 kPa	530.77 kg/m3
420 K, 30000 kPa	551.51 kg/m3
420 K, 40000 kPa	567.85 kg/m3
420 K, 50000 kPa	581.15 kg/m3
420 K, 60000 kPa	592.84 kg/m3
420 K, 70000 kPa	602.84 kg/m3
420 K, 80000 kPa	612.1 kg/m3
420 K, 90000 kPa	620.5 kg/m3
420 K, 100000 kPa	628.24 kg/m3
420 K, 120000 kPa	641.97 kg/m3
420 K, 140000 kPa	653.97 kg/m3
420 K, 160000 kPa	664.82 kg/m3
420 K, 180000 kPa	674.63 kg/m3
420 K, 200000 kPa	683.74 kg/m3
440 K, 3000 kPa	412.99 kg/m3
440 K, 5000 kPa	439.7 kg/m3
440 K, 10000 kPa	474.4 kg/m3
440 K, 20000 kPa	511.64 kg/m3
440 K, 30000 kPa	535.46 kg/m3
440 K, 40000 kPa	553.42 kg/m3
440 K, 50000 kPa	568.08 kg/m3
440 K, 60000 kPa	580.59 kg/m3
440 K, 70000 kPa	591.44 kg/m3
440 K, 80000 kPa	601.22 kg/m3
440 K, 90000 kPa	610.1 kg/m3
440 K, 100000 kPa	618.08 kg/m3
440 K, 120000 kPa	632.51 kg/m3
440 K, 140000 kPa	645.06 kg/m3
440 K, 160000 kPa	656.44 kg/m3
440 K, 180000 kPa	666.6 kg/m3
440 K, 200000 kPa	676.01 kg/m3

Conditions	mass density [kg/m3]	vapor or sublimation pressure [kPa]
340 K	569.21	328
360 K	544.8	538
380 K	518.31	835
400 K	487.34	1238
410 K	469.93	1487
420 K	450.21	1772

From the NIST ThermoML archive (doi:10.1016/j.jct.2016.05.019)
